From paper PMC8428848, “Ancient role of sulfakinin/cholecystokinin-type signalling in inhibitory regulation of feeding processes revealed in an echinoderm” (eLife, 2021)
Read-outs that look alike come from different tables or passages of the source. Square brackets hold non-standard residues; d marks the D form. Ends that are not written are not given here. * marks the point of attachment. pGlu = O=C1CC[C@@H](C(=O)O)N1; SO3H = O=S(=O)(O)*

What was measured:
[1] = tested on: cardiac stomach preparations; conditions: cited from earlier work
Excerpt: (§1) Extra-oral feeding in starfish requires relaxation of muscle in the wall of the cardiac stomach and in intrinsic and extrinsic retractor strands to enable stomach eversion. Then when external digestion and ingestion of prey tissue is completed, contraction of the musculature enables cardiac stomach retraction ([Anderson, 1954]). Previous studies have identified neuropep ...

[2] = tested on: Asterias rubens; conditions: cited from earlier work
Excerpt: as §1

[3] = target: T1, ArSK/CCKR (Asterias rubens, UniProt A0A8F2ZGB9); assay: Aequorin bioluminescence receptor assay in CHO-K1 cells (G5A) co-transfected with ArSK/CCKR and human Gα16; assay type: cell-based; conditions: 10^–12 to 10^–4 M; at least three independent experiments in triplicate
T1 sequence (A0A8F2ZGB9 1-434): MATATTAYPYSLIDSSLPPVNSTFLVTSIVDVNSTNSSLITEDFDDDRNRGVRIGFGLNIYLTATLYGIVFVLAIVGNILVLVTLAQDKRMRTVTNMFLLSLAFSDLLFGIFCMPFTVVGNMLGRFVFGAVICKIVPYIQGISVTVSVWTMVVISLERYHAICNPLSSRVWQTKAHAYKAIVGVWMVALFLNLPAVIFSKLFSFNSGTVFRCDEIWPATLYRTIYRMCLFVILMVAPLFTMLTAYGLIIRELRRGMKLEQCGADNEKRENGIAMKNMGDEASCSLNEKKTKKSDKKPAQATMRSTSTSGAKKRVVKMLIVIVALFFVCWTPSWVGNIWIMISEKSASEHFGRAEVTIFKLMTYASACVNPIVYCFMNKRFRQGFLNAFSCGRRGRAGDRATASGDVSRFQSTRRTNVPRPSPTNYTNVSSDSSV
Excerpt: To enable testing of ArSK/CCK1 and ArSK/CCK2 as candidate ligands for ArSK/CCKR, a full-length cDNA encoding ArSK/CCKR was synthesized by GenScript (Piscataway, NJ) and cloned into pcDNA 3.1+ vector (Invitrogen, Thermo Fisher Scientific, Waltham, MA). A partial Kozak translation initiation sequence (CACC) was introduced upstream to the start codon (ATG). CHO-K1 cells stably expressing the mitochondrial targeted calcium-sensitive bioluminescent reporter GFP-aequorin fusion protein (G5A) ([Baubet et al., 2000]) were used as a heterologous expression system for ArSK/CCKR. These cells have been used previously for neuropeptide receptor deorphanisation ([Bauknecht and Jékely, 2015]) and were generously supplied to us by Dr Gáspár Jékely (University of Exeter). The cell line was generated using the CHO-K1 cell line from Sigma-Aldrich (85051005; RRID: CVCL_0214), which is certified by the European Collection of Authenticated Cell Cultures (ECACC), and expression of the GFP-aequorin fusion protein (G5A) in the cell line was determined by functionality in displaying calcium-activated luminescence. […] Cells were cultured, co-transfected with the pcDNA 3.1+ vector containing the ArSK/CCKR cDNA sequence and plasmids encoding the promiscuous human G-protein Gα16. Then bioluminescence-based receptor assays were performed, as described previously for A. rubens luqin-type receptors ([Yañez-Guerra et al., 2018]).
[…] Concentration-response data were determined as a percentage of the highest response for each peptide (100% activation). EC50 values were calculated from concentration-response curves based on four to six independent transfections and averaging two to three replicates in each transfection using Prism 6.0 (RRID:SCR_002798; GraphPad software, La Jolla, CA). Cells transfected with an empty vector were used for control experiments.

[4] = tested on: Asterias rubens; conditions: injected in vivo; ref Tinoco et al., 2018; cited from earlier work
Excerpt: The in vivo effect of SK/CCK-type neuropeptides in triggering cardiac stomach retraction is indicative of a role in physiological mechanisms that control termination of feeding behaviour in starfish. […] Accordingly, here we observed that starfish injected with SK/CCK-type neuropeptides took longer to enclose prey compared to control animals injected with water. Further ...

[5] = tested on: affinity-purified rabbit antibodies to ArSK/CCK1; assay: ELISA specificity test of affinity-purified antibodies to ArSK/CCK1; assay type: binding; conditions: TEA fraction diluted 1:10; peptide 0.1 nmol (100 µl of 1 µM); mean of six replicates
Excerpt: To generate antibodies to ArSK/CCK1, an N-terminally truncated peptide analog of ArSK/CCK1 with the addition of a reactive N-terminal lysine residue was synthesized (KY(SO3H)GHGLFW-NH2 , Peptide Protein Research Ltd, Fareham, UK). To generate antibodies to ArSK/CCKR, a peptide corresponding to the C-terminal 15 amino acids of ArSK/CCK-R with addition of an N-terminal reactive lysine residue was synthesized (KPSPTNYTNVSSDSSV, Peptide Protein Research Ltd, Fareham, UK). These peptides were conjugated to porcine thyroglobulin (Sigma-Aldrich, Gillingham, UK) as a carrier protein using 5% glutaraldehyde (Sigma-Aldrich, Gillingham, UK) in phosphate buffer (0.1 M; pH 7.2) and the conjugate was used for immunisation of a rabbit for ArSK/CCK1 (70-day protocol; Charles River Biologics, Romans, France) and a guinea pig for ArSK/CCKR (56-day protocol; Charles River Biologics, Romans, France). The antigens were emulsified in Freund’s complete adjuvant for primary immunisations (~100 nmol antigen peptide) and in Freund’s incomplete adjuvant for three booster immunisations (~50 nmol antigen peptide). The presence of antibodies to the antigen peptides in post-immunisation serum samples was assessed using an enzyme-linked immunosorbent assay (ELISA), in comparison with pre-immune serum (Figure 5—figure supplement 1a; Figure 6—figure supplement 1). Antibodies to the antigen peptides were purified from the final bleed antiserum by affinity purification using the AminoLink Plus Immobilization Kit (Thermo Fisher Scientific, Waltham, MA), with bound antibodies eluted using glycine elution buffer (6.3 ml of 100 mM glycine [VWR Chemicals, Leicestershire, UK] and 0.7 ml of Tris [1 M, pH = 7.0]) and […] (TEA) elution buffer (6.3 ml of TEA [Sigma-Aldrich, Gillingham, UK] and 0.7 ml of Tris [1 M, pH = 7.0]). Eluates were dialyzed and sodium azide (0.1%) was added for long-term storage of the affinity-purified antibodies at 4°C. The specificity of ArSK/CCK1 antibodies eluted with TEA, which were subsequently used for immunohistochemistry (see below), was assessed by ELISA by testing them at a concentration of 1:10 with the following synthetic peptides (100 µl at a concentration of 1 µM dissolved in carbonate/bicarbonate buffer [25 mM sodium carbonate, 25 mM sodium bicarbonate, pH = 9.8]): ArSK/CCK1, ArSK/CCK2, ArSK/CCK2(ns) and the A. rubens luqin-type peptide ArLQ (Figure 5—figure supplement 1b). The rabbit antiserum to ArSK/CCK1 has been assigned the RRID:AB_2877176 and the guinea pig antiserum to ArSK/CCKR has been assigned the RRID:AB_2891354.

[6] = target: Asterias rubens SK/CCK-type receptor (ArSK/CCKR) (Asterias rubens)

Molecule: SGPYSFNSGLTF-NH2 [S2, SALMFamide neuropeptide S2 (…-NH2)]
- effect on cardiac stomach in vitro ([1]; ref Melarange et al., 1999): cause relaxation
- effect on cardiac stomach when injected in vivo ([2]; ref Melarange et al., 1999): trigger cardiac stomach eversion
- activation of ArSK/CCKR (luminescence) [3]: inactive

Molecule: GGGVPHVFQSGGIF-NH2 [ArTK2, A. rubens tachykinin-like peptide ([…]-NH2), reference compound]
- activation of ArSK/CCKR (luminescence) [3]: inactive

Molecule: asterotocin
- effect on cardiac stomach in vitro ([1]; ref Odekunle et al., 2019): cause relaxation
- effect on cardiac stomach when injected in vivo ([2]; ref Odekunle et al., 2019): trigger cardiac stomach eversion

Molecule: NGFFYamide
- effect on cardiac stomach in vitro ([1]; ref Semmens et al., 2013): triggers contraction
- effect on everted cardiac stomach when injected in vivo ([2]; ref Semmens et al., 2013): retraction of the everted stomach
- onset of feeding on prey (mussels) [4]: significant delay in the onset of feeding

Molecule: EEKTRFPKFMRW-NH2 [ArLQ, A. rubens luqin-type neuropeptide …-NH2, reference compound]
- ELISA reactivity (optical density) with antibodies to ArSK/CCK1 [5]: do not cross-react

B1: ArSK/CCK2 (Asterias rubens sulfakinin/cholecystokinin-type neuropeptide 2), GGDDQY(SO3H)GFGLFF-NH2 (peptide)
peptide: GGDDQY(SO3H)GFGLFF-NH2
modifications: N-terminus assumed
SMILES: CC(C)C[C@H](NC(=O)CNC(=O)[C@H](Cc1ccccc1)NC(=O)CNC(=O)[C@H](Cc1ccc(OS(=O)(=O)O)cc1)NC(=O)[C@H](CCC(N)=O)NC(=O)[C@H](CC(=O)O)NC(=O)[C@H](CC(=O)O)NC(=O)CNC(=O)CN)C(=O)N[C@@H](Cc1ccccc1)C(=O)N[C@@H](Cc1ccccc1)C(N)=O
- EC50 of concentration-dependent luminescence (calcium, GFP-aequorin G5A) in CHO-K1 cells transfected with ArSK/CCKR and human Gα16 [6]: 0.12 nM

B2: ArSK/CCK2(ns), non-sulphated form of ArSK/CCK2, …-NH2 (peptide)
peptide: GGDDQYGFGLFF-NH2
- EC50 of concentration-dependent luminescence (calcium, GFP-aequorin G5A) in CHO-K1 cells transfected with ArSK/CCKR and human Gα16 [6]: 48000 nM

B3: ArSK/CCK1 (Asterias rubens sulfakinin/cholecystokinin-type neuropeptide 1), pQSKVDDY(SO3H)GHGLFW-NH2 (peptide)
peptide: [pGlu]SKVDDY(SO3H)GHGLFW-NH2
SMILES: CC(C)C[C@H](NC(=O)CNC(=O)[C@H](Cc1c[nH]cn1)NC(=O)CNC(=O)[C@H](Cc1ccc(OS(=O)(=O)O)cc1)NC(=O)[C@H](CC(=O)O)NC(=O)[C@H](CC(=O)O)NC(=O)[C@@H](NC(=O)[C@H](CCCCN)NC(=O)[C@H](CO)NC(=O)[C@@H]1CCC(=O)N1)C(C)C)C(=O)N[C@@H](Cc1ccccc1)C(=O)N[C@@H](Cc1c[nH]c2ccccc12)C(N)=O
- EC50 of concentration-dependent luminescence (calcium, GFP-aequorin G5A) in CHO-K1 cells transfected with ArSK/CCKR and human Gα16 [6]: 0.25 nM
